Source: US20240368174A1, “Antiviral Heterocyclic Compounds” (Enanta Pharmaceuticals, Inc., priority 2023, published 2024)

Columns and labels:
[1] = test system: genotype A, “Long” strain RSV; experiment: RSV-A assay (CPE, ATPlite readout in Hep-2 cells); format: cell-based, Human respiratory syncytial virus; conditions: human respiratory syncytial virus, activity class
Method in brief: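 Hep-2, 8,000 cells/well, MOI 0.1 (PFU- or TCID50-based); 2-fold compound series, duplicates; 5 d incubation; ATPlite luminescence readout; EC50.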

[2] = test system: HMPV clinical isolate A2 strain TN 94-49; experiment: HMPV antiviral assay, Method 1 (LLC-MK2 cells, ATP-Lite); format: cell-based; conditions: human metapneumovirus, hMPV A2 TN/94-49, LLC-MK2 cells
Method in brief: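 EC50 derived by four-parameter logistic fit of percent cell health, measured as ATP-Lite luminescence after 7 days at 37° C, 5% CO2. Compounds tested as 10-point 2.5-fold dilutions starting at 2 μM against TN 94-49 virus (MOI 0.005) in LLC-MK2 cells seeded at 5,000/well, infection medium containing 2 μg/mL TPCK-trypsin, serum-free.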

[3] = test system: HMPV clinical isolate A2 strain TN 94-49; experiment: HMPV antiviral assay, Method 2 (LLC-MK2 cells with CP-100-356, ATP-Lite); format: cell-based; conditions: human metapneumovirus
Method in brief: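 EC50 comes from a four-parameter fit of percent cell viability (ATP-Lite, normalized to virus-only and cell-only wells) after 7 days at 37 °C. Infection used HMPV A2 TN 94-49 at MOI 0.16 in LLC-MK2 cells, with 2 μM P-gp inhibitor CP-100-356 and 2 μg/mL TPCK-trypsin final; dose range 200 nM top, 2.5-fold, 10 points, duplicate.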

[4] = hMPV A2 TN/94-49, LLC-MK2 cells with CP-100-356, Method 2
[5] = 168 h, hMPV A2 TN/94-49, LLC-MK2 cells with 4 μM CP-100-356, 7 days, ATP-Lite

| SMILES | EC50 [1] | EC50 [2] | EC50 [3, 4] | EC50 [3, 5] |
| --- | --- | --- | --- | --- |
| Cc1nc2c(OC3CC3)cc(C(=O)NC[C@](O)(c3cc4c(c(-c5cc(Cl)c(F)cc5F)n3)OC[C@]4(C)C(N)=O)C3CC3)cc2s1 [Example 76] | < 200 nM | < 500 nM | – | – |
| COc1cc(C(=O)NC[C@](O)(c2cc3c(c(-c4cc(Cl)c(F)cc4F)n2)OC[C@]3(C)C(N)=O)C2(CO)CC2)cc2cn(C3CC3)nc12 [Example 245] | < 200 nM | > 500 nM | – | – |
| [2H]C([2H])([2H])c1nc2ccc(C(=O)NC[C@](O)(c3cc4c(c(-c5cc(Cl)c(F)cc5F)n3)OC[C@]4(C)C(N)=O)C3CC3)cc2o1 [Example 91] | < 200 nM | < 500 nM | – | – |
| COc1cc(C(=O)NC[C@](O)(c2cc3c(c(-c4cc(Cl)c(F)cc4F)n2)OC[C@]3(C)C(N)=O)[C@@H]2CC2(F)F)cc2cn(C3CC3)nc12 [Example 151] | < 200 nM | < 500 nM | – | – |
| Cc1nc2ccc(C(=O)NC[C@](O)(c3cc4c(c(-c5cc(Cl)c(F)cc5F)n3)OC[C@]4(C)C(N)=O)C3CC3)cc2s1 [Example 74] | < 200 nM | < 500 nM | – | – |
| Cc1nc2ccc(C(=O)NC[C@](O)(c3cc4c(c(-c5cc(Cl)c(F)cc5F)n3)OC[C@]4(C)C(N)=O)C3CC3)cc2o1 [Example 75] | < 200 nM | < 500 nM | – | – |
| C[C@]1(C(N)=O)COc2c1cc([C@@](O)(CNC(=O)c1ccc3nc(N)sc3c1)C1CC1)nc2-c1cc(F)c(F)cc1F [Example 73] | < 200 nM | > 500 nM | – | – |
| C[C@]1(C(N)=O)COc2c1cc([C@@](O)(CNC(=O)c1cc(OC3CC3)c3nn(C4CC4)cc3c1)C1CC(F)(F)C1)nc2-c1cc(F)c(F)cc1F [Example 32] | < 200 nM | < 500 nM | – | – |
| [2H]C([2H])([2H])c1nc2ccc(C(=O)NC[C@](O)(c3cc4c(c(-c5cc(F)c(F)cc5F)n3)OC[C@]4(C)C(N)=O)C3CC3)cc2o1 [Example 92] | < 200 nM | < 500 nM | – | – |
| [2H]C([2H])([2H])C1=NC2C(OC)=CC(C(=O)NC[C@](O)(c3cc4c(c(-c5ccc6c(c5Cl)OC(F)(F)O6)n3)OC[C@]4(C)C(N)=O)C3CC3)=CC2S1 (some centres unmarked) [Example 127] | < 200 nM | < 500 nM | – | – |
| COc1cc(C(=O)NC[C@@](O)(c2ccc(F)cc2)c2cc3c(c(-c4ccc5c(c4Cl)OC(F)(F)O5)n2)OC[C@]3(C)C(N)=O)cc2cn(C3CC3)nc12 [Example 25] | < 200 nM | < 500 nM | – | – |
| COc1cc(C(=O)NC[C@](O)(c2cc3c(c(-c4cc(Cl)c(F)cc4F)n2)OC[C@]3(C)C(N)=O)[C@H]2CC2(F)F)cc2cn(C3CC3)nc12 [Example 150] | < 200 nM | < 500 nM | – | – |
| COc1cc(C(=O)NC[C@](O)(c2cc3c(c(-c4ccc5c(c4Cl)OC(F)(F)O5)n2)OC[C@]3(C)C(N)=O)C2CC2)cc2cn(C3(F)CC3)nc12 [Example 128] | < 200 nM | < 500 nM | – | – |
| COc1cc(C(=O)NC[C@@](O)(c2ccccc2)c2cc3c(c(-c4ccnc(F)c4Cl)n2)OC[C@]3(C)C(N)=O)cc2cc(Cl)cnc12 [Example 346] | < 200 nM | – | < 200 nM | – |
| COc1cc(C(=O)NC[C@](O)(c2cc3c(c(-c4cc(F)c(F)cc4F)n2)OC[C@]3(C)C(N)=O)C2CC2)cc2cc(Cl)nnc12 [Example 114] | < 200 nM | – | < 200 nM | – |
| COc1cc(C(=O)NC[C@](O)(c2cc3c(c(-c4cc(F)c(F)cc4F)n2)OC[C@]3(C)C(N)=O)C2CC2)cn2cc(C3CC3)nc12 [Example 116] | < 200 nM | – | < 200 nM | – |
| COc1cc(C(=O)NC[C@](O)(c2cc3c(c(-c4cc(C(F)(F)F)ncc4F)n2)OC[C@]3(C)C(N)=O)C2CC2)cc2cn(C3CC3)nc12 [Example 347] | < 200 nM | – | < 200 nM | – |
| C[C@]1(C(N)=O)COc2c1cc([C@@](O)(CNC(=O)c1ccc3nc(C4CC4)oc3c1)C1CC1)nc2-c1cc(C(F)(F)F)c(F)cc1F [Example 306] | < 200 nM | – | < 200 nM | – |
| C[C@]1(C(N)=O)COc2c1cc([C@@](O)(CNC(=O)c1ccc3nc(C4CC4)oc3c1)C1CC1)nc2-c1ccc(F)c(Cl)c1Cl [Example 319] | < 200 nM | – | < 200 nM | – |
| COc1cc(C(=O)NC[C@](O)(c2cc3c(c(-c4cc(C(F)(F)F)c(F)cc4F)n2)OC[C@]3(C)C(N)=O)C2CC2)cc2cn(C3(F)CC3)nc12 [Example 309] | < 200 nM | – | < 200 nM | – |
| COc1cc(C(=O)NC[C@](O)(c2cc3c(c(-c4cc(F)nc(F)c4)n2)OC[C@]3(C)C(N)=O)C2CC2)cc2cn(C3CC3)nc12 [Example 390] | < 200 nM | – | < 200 nM | – |
| COc1cc(C(=O)NC[C@@](O)(c2ccccc2)c2cc3c(c(-c4ccnc(F)c4Cl)n2)OC[C@]3(C)C(N)=O)cc2cn(C3CC3)nc12 [Example 343] | < 200 nM | – | < 200 nM | – |
| COc1cc(C(=O)NC[C@](O)(c2cc3c(c(-c4ccc5c(c4)OC(F)(F)O5)n2)OC[C@]3(C)C(N)=O)C2CC2)cc2cc(Cl)cnc12 [Example 107] | < 200 nM | – | < 200 nM | – |
| COc1cc(C(=O)NC[C@](O)(c2cc3c(c(-c4ccc(F)c(Cl)c4Cl)n2)OC[C@]3(C)C(N)=O)C2CC2)cc2cc(Cl)cnc12 [Example 320] | < 200 nM | – | < 200 nM | – |
| COc1cc(C(=O)NC[C@](O)(c2cc3c(c(-c4cc(Cl)c(F)cc4F)n2)OC[C@]3(C)C(N)=O)C2(CF)CC2)cc2cn(C3CC3)nc12 [Example 212] | < 200 nM | – | > 200 nM | – |

Results, then the compound that gave them:

| EC50 [1] | EC50 [2] | EC50 [3, 4] | EC50 [3, 5] | SMILES |
| --- | --- | --- | --- | --- |
| < 200 nM | < 500 nM | – | – | COc1cc(C(=O)NC[C@](O)(c2cc3c(c(-c4ccc(F)c(Cl)c4C)n2)OC[C@]3(C)C(N)=O)C2CC2)cc2cn(C3CC3)nc12 [Example 391] |
| < 200 nM | < 500 nM | – | – | COc1cc(C(=O)NC[C@](O)(c2cc3c(c(-c4ccc5c(c4C)OC(F)(F)O5)n2)OC[C@]3(C)C(N)=O)C2CC2)cc2cn(C3CC3)nc12 [Example 392] |
| < 200 nM | – | < 200 nM | – | COc1cc(C(=O)NC[C@](O)(c2cc3c(c(-n4ccc5ccccc54)n2)OC[C@]3(C)C(N)=O)C2CC2)cc2cn(C3CC3)nc12 [Example 443] |
| < 200 nM | – | – | < 200 nM | COc1cc(C(=O)NC[C@@](O)(c2ccccc2)c2cc3c(c(-n4ncc5c(F)cccc54)n2)OC[C@]3(C)C(N)=O)cc2oc(C3CC3)nc12 [Example 631] |
| < 200 nM | – | < 200 nM | – | COC1=CC(C(=O)NC[C@](O)(c2cc3c(c(-c4ccnc(C)c4Cl)n2)OC[C@]3(C)C(N)=O)C2(F)CC2)=CC2OC(C3CC3)=NC12 (some centres unmarked) [Example 526] |
| < 200 nM | – | – | < 200 nM | COc1cc(C(=O)NC[C@](O)(c2cc3c(c(-n4ccc5c(F)cccc54)n2)OC[C@]3(C)C(N)=O)C2(F)CC2)cc2cn(C3(F)CC3)nc12 [Example 689] |
| < 200 nM | – | – | < 200 nM | COc1cc(C(=O)NC[C@](O)(c2cc3c(c(-n4ncc5cc(F)ccc54)n2)OC[C@]3(C)C(N)=O)C2CC2)cc2cn(C3CC3)nc12 [Example 821] |
| < 200 nM | – | < 200 nM | – | COc1nccc(-c2nc([C@@](O)(CNC(=O)c3cc(OC)n4nc(C5CC5)cc4c3)C3CC3)cc3c2OC[C@]3(C)C(N)=O)c1Cl [Example 582] |
| < 200 nM | – | – | < 200 nM | COc1cc(C(=O)NC[C@](O)(c2cc3c(c(-c4ccnc(C(F)(F)F)c4Cl)n2)OC[C@]3(C)C(N)=O)C2CC2)cc2cn(C3(F)CC3)nc12 [Example 760] |
| < 200 nM | – | < 200 nM | – | COc1cc(C(=O)NC[C@](O)(c2cc3c(c(-c4ccsc4Cl)n2)OC[C@]3(C)C(N)=O)C2CC2)cc2cn(C3CC3)nc12 [Example 415] |
| < 200 nM | – | – | < 200 nM | COc1nccc(-c2nc([C@@](O)(CNC(=O)c3cc(OC)c4nn(C5CC5)cc4c3)C(F)(F)F)cc3c2OC[C@]3(C)C(N)=O)c1Cl [Example 796] |
| < 200 nM | – | – | < 200 nM | COc1nccc(-c2nc([C@@](O)(CNC(=O)c3cc(OC)c4nn(C5(F)CC5)cc4c3)C3CC3)cc3c2OC[C@]3(C)C(N)=O)c1Cl [Example 789] |
| < 200 nM | – | < 200 nM | – | COc1cc(C(=O)NC[C@](O)(c2cc3c(c(-c4cc(Cl)ncc4C)n2)OC[C@]3(C)C(N)=O)C2CC2)cc2cn(C3CC3)nc12 [Example 417] |
| < 200 nM | – | – | < 200 nM | COc1cc(C(=O)NC[C@](O)(c2cc3c(c(-n4ccc5c(F)cccc54)n2)OC[C@]3(C)C(N)=O)C2CC2)cc2cn(C3(F)CC3)nc12 [Example 777] |
| < 200 nM | – | – | < 200 nM | C[C@]1(C(N)=O)COc2c1cc([C@@](O)(CNC(=O)c1cc(Cl)c3nn(C4CC4)cc3c1)C1(F)CC1)nc2-c1cc(C(F)(F)F)ncc1F [Example 671] |
| < 200 nM | – | – | < 200 nM | COc1cc(C(=O)NC[C@](O)(c2cc3c(c(-c4ccnc(C(F)(F)F)c4F)n2)OC[C@]3(C)C(N)=O)C2CC2)cc2cn(C3CC3)nc12 [Example 794] |
| < 200 nM | – | – | < 200 nM | COc1nccc(-c2nc([C@@](O)(CNC(=O)c3cc(OC)c4nn(C(F)F)cc4c3)C3CC3)cc3c2OC[C@]3(C)C(N)=O)c1Cl [Example 788] |
| < 200 nM | – | > 200 nM | – | COc1cc(C(=O)NC[C@@](O)(C#CC(C)(C)O)c2cc3c(c(-c4cc(Cl)c(F)cc4F)n2)OC[C@]3(C)C(N)=O)cc2cn(C3CC3)nc12 [Example 477] |
